{"source": "patent US8486900B2", "about": "“Method for preparing a Centella asiatica extract rich in madecassoside and in terminoloside” (Bayer Consumer Care AG, priority 2002, dated 2013)", "key": {"IL-1α": {"test_system": "IL-1α", "assay": "IFN-γ-induced intracellular IL-1α production by normal human keratinocytes", "format": "cell-based", "settings": "for IL-1α (intracellular): K02-1H6, IFN-γ 1000 U/ml, 48 h + 24 h", "description": "In order to evaluate the anti-inflammatory activity of terminoloside, of madecassoside and of the mixture of heterosides, we studied the modulatory effects of these three active agents with respect to the production and release of proinflammatory epidermal cytokines (IL-1α, IL-8, PGE-2) by human keratinocytes in culture, subjected to an irritative stress induced either with interferon-gamma (IFN-γ) or with PMA. Human keratinocytes were isolated from human skin. The cells were cultured in serum-free KGM medium (Keratinocyte Growth Medium, sold by the company Clonetics®), according to the usual techniques set up in the laboratory, at 37° C. in a humid air-CO2 (95%-5%) atmosphere. The cells were seeded into 25 cm^2 flasks and passaged regularly before reaching confluency. The principle of the assay is based on evaluating the production of proinflammatory cytokines by human keratinocytes, in response to an irritative stress. The method is based on measuring the intracellular amount of IL-1α and of the amounts of IL-8 and of PGE-2 released into the extracellular medium by keratinocytes cultured in the absence and in the presence of the products being studied, and stimulated even with interferon-gamma (IFN-γ) or with PMA (phorbol-12-myristate-13-acetate).\nThe study was carried out on keratinocytes isolated from foreskin of young children (strain K02-1H6).\n1. Treatment of the cells for 48 h with the product being studied before induction of the irritative stress; 2. induction of the irritative stress: IFN-γ (1000 U/ml); 3. incubation of the “activated” cells, for 24 h, in the presence of the product being studied; 4. assay: IL-8 (extracellular) and IL-1α (intracellular). Cellular protein assay.\nTables 34 to 36 below group together the intracellular amounts of IL-1α after activation of the cells (+IFN-γ), and the basal amount (−IFN-γ). The IFN-γ-induced production of IL-1α and the anti-inflammatory activity (AIA) were calculated for each concentration according to: Il-1α production=IL-1α(+IFN)−IL-1α(−IFN) AIA=[(IL-1α production(control cells)−IL-1α production(treated cells)/IL-1α production(control cells)]×100"}}, "data": [{"smiles": "CC1OC(O[C@@H]2C(CO)OC(OCC3OC(OC(=O)C4CC(C)(C)CC5C6=CCC7C(CC(O)C8C(C)(CO)C(O)C(O)CC78C)C6(C)CCC45)[C@@H](O)C(O)[C@@H]3O)[C@@H](O)C2O)[C@@H](O)C(O)[C@H]1O", "note": "(stereo partly drawn) [Terminoloside, 1-[O-α-L-rhamnopyranosyl-(1-4)-O-β-glucopyranosol-(1-6)]-O-β-D-glucopyranose 2α,3β,6β,23-tetrahydroxyolea-12-en-28-oate]", "values": [{"measurement": "IL-1α production (+IFN minus −IFN)", "setting": "IL-1α; 0.1 mg/ml", "result": 6.07}, {"measurement": "IL-1α production (+IFN minus −IFN)", "setting": "IL-1α; 0.25 mg/ml", "result": 5.37}, {"measurement": "IL-1α production (+IFN minus −IFN)", "setting": "IL-1α; 0.5 mg/ml", "result": 4.60}, {"measurement": "IL-1α production (+IFN minus −IFN)", "setting": "IL-1α; 1 mg/ml", "result": 2.31}, {"measurement": "inhibition at 100 µg/mL", "setting": "IL-1α; Homo sapiens, Keratinocyte, IFN-γ 1000 U/ml, 0.1 mg/ml, read-out: Anti-inflammatory activity (%), IL-1α", "result": 17, "unit": "%"}, {"measurement": "inhibition at 250 µg/mL", "setting": "IL-1α; Homo sapiens, Keratinocyte, IFN-γ 1000 U/ml, 0.25 mg/ml, read-out: Anti-inflammatory activity (%), IL-1α", "result": 27, "unit": "%"}, {"measurement": "inhibition at 500 µg/mL", "setting": "IL-1α; Homo sapiens, Keratinocyte, IFN-γ 1000 U/ml, 0.5 mg/ml, read-out: Anti-inflammatory activity (%), IL-1α", "result": 37, "unit": "%"}, {"measurement": "inhibition at 1000 µg/mL", "setting": "IL-1α; Homo sapiens, Keratinocyte, IFN-γ 1000 U/ml, 1 mg/ml, read-out: Anti-inflammatory activity (%), IL-1α", "result": 68, "unit": "%"}, {"measurement": "IL-1α (intracellular)", "setting": "IL-1α; 0.1 mg/ml", "result": 8.78, "unit": "pg/μg prot"}, {"measurement": "IL-1α (intracellular)", "setting": "IL-1α; 0.25 mg/ml", "result": 8.08, "unit": "pg/μg prot"}, {"measurement": "IL-1α (intracellular)", "setting": "IL-1α; 0.5 mg/ml", "result": 7.31, "unit": "pg/μg prot"}, {"measurement": "IL-1α (intracellular)", "setting": "IL-1α; 1 mg/ml", "result": 5.02, "unit": "pg/μg prot"}, {"measurement": "solubility", "setting": "Solubility", "result": "water-soluble"}]}]}
